# Laboratory results published in patent US9561232B2, “Low dose noribogaine for treating nicotine addiction and preventing relapse of nicotine use” (priority 2014, dated 2017).
# Where two headings read alike, the source gives them in different places.
# How the values were obtained:
# [1] = Pupillometry (pupillary miosis) in healthy volunteers; type: in vivo, human
# Protocol: Pupillary miosis was assessed by pupillometry.
# [2] = Cold pressor test in healthy volunteers; type: in vivo, human; details: ANOVA after adjusting for baseline
# Protocol: Analgesic effect was assessed based on duration of hand immersion in ice water and on visual analog scale (VAS) pain scores upon hand removal from the water bath.
# [3] = tested on: opioid-dependent participants; experiment: Efficacy in opioid-dependent participants: time to resumption of OST and COWS/OOWS/SOWS withdrawal scores; type: in vivo, human
# Protocol: The efficacy of noribogaine in humans was evaluated in opioid-dependent participants in a randomized, placebo-controlled, double-blind trial. […] See U.S. application Ser. No. 14/214,157, filed Mar. 14, 2014 and Ser. No. 14/346,655, filed Mar. 21, 2014, which are incorporated herein by reference in their entireties.
# Three cohorts of nine (9) subjects (6 administered noribogaine and 3 administered placebo in each cohort) were evaluated for tolerability, pharmacokinetics, and efficacy. Cohort 1 received a single dose of 60 mg noribogaine or placebo. Cohort 2 received a single dose of 120 mg noribogaine or placebo. Cohort 3 received a single dose of 180 mg noribogaine or placebo. […] Headaches were frequent in the placebo and 60 mg noribogaine treatment groups, but were attenuated in the 120 mg and 180 mg dose groups.
# Patients were evaluated based on the Clinical Opiate Withdrawal Scale (COWS), Subjective Opiate Withdrawal Scale (SOWS), and Objective Opiate Withdrawal Scale (OOWS) scoring systems over the period of time between administration of noribogaine (or placebo) until resumption of OST. These scales are outlined in Guidelines for the Psychosocially Assisted Pharmacological Treatment of Opioid Dependence, World Health Organization, Geneva (2009), Annex 10, which is incorporated herein by reference in its entirety. The scales measure the intensity of withdrawal symptoms, based on clinical, subjective, and objective indicia.
# nicotine dependent rats = experiment: Nicotine self-administration test; type: in vivo, Sprague-Dawley rats
# [4] = tested on: zebrafish during nicotine withdrawal; type: in vivo
# Protocol: A total of 60 adult wild type short-fin zebrafish (˜50:50 male:female ratio) were used in this study. Fish were housed in groups of 20-30 fish per 40-L tank. Tanks were filled with filtered water and maintained at 25° C. Illumination (1000-1100 lx) was provided by ceiling-mounted fluorescent lights on a 12-h cycle (on: 6.00 h, off: 18.00 h) according to the standards of zebrafish care. All fish used in this study were experimentally naïve and fed Tetramin Tropical Flakes (Tetra USA, Blacksburg, Va.) twice a day. Following behavioral testing, the animals were euthanized in 500 mg/L Tricaine (Sigma-Aldrich, St. Louis, Mo.) buffered to pH=7.0. Animal experimentation in this study fully adhered to national and institutional guidelines and regulations.
# A 1 mg/L dose of noribogaine (DMX1) was chosen based on pilot experiments and literature reports on effective doses other similar compounds. […] A standard 20-min pre-treatment time was chosen based on experience with a wide range of other neuroactive compounds and the results of pilot studies. This exposure time was also sufficient for provoking physiological (e.g., cortisol and c-fos) responses of zebrafish to multiple drugs. Drug exposure in this study was performed by submerging individual zebrafish in a 1-L plastic beaker for 20 min prior to the testing. The solution was regularly changed after each exposure, to ensure that each fish is exposed to a consistent concentration of noribogaine. Control fish were exposed to noribogaine-free water for the same treatment time, as described above.
# Behavioral testing was performed between 11:00 and 15:00 h using tanks with water adjusted to the holding room temperature (25° C.). The study used the novel tank test (NTT) protocol. NTT represents one of the most commonly used neurophenotyping tests for adult zebrafish. To avoid the test battery or handling effects, each assay was performed once, on a separate individual naïve fish each time. Prior to testing, fish were pre-exposed individually in a 1-L plastic beaker for 20 min to either drug-treated or drug-free water. During testing, zebrafish behavior was recorded by two trained observers blind to the treatments, who manually scored different behavioral endpoints (inter- and intra-rater reliability in all experiments>0.85) with subsequent automated analysis of generated traces by Ethovision XT8.5 software (Noldus IT, Wageningen, Netherlands). The NTT, used to assess zebrafish anxiety and locomotion, was a 1.5-L trapezoidal tank (15 cm height×28 cm top×23 cm bottom×7 cm width; Aquatic Habitats, Apopka, Fla.) maximally filled with water and divided into two equal virtual horizontal portions by a line marking the outside walls. Fish were individually pre-exposed to water (water control), chronic nicotine (1 mg/L), repeated withdrawal from chronic nicotine (WD), and repeated withdrawal plus noribogaine (1 mg/L) for 20 min and tested in the standard 5-min NTT.
# Zebrafish behavior was recorded by trained observers, scoring the latency to reach the top half of the tank(s), time spent in top(s), number of transitions to top, as well as the number and duration(s) of freezing bouts. Freezing was defined as a total absence of movement, except for the gills and eyes, for >2 s. Trials were also recorded to a computer using a USB webcam (2.0-megapixel, Gigaware, UK) and subsequently analyzed by Ethovision XT8.5, assessing distance traveled (m), velocity (m/s), and meandering endpoints. During manual observation, videos were recorded in MPEG1 format with the maximum sample rate 30 fps for each trial by auto-focusing 2.0 MP USB webcams, placed 25 cm in front of the tanks, and attached to laptop computers. Recorded videos were analyzed with Ethovision XT8.5 software. All environments were calibrated for each arena and the calibration axes were placed to designate the origin (0,0) at the center of each tank. […]
# [5] = Pharmacokinetics in opioid-dependent patients (Phase IB study); details: 60, 120, 180 mg cohorts
# [6] = Treatment emergent adverse events in opioid-dependent participants
# [7] = nicotine withdrawal + 1 mg/L, 20 min immersion, 5-min NTT
# [8] = nicotine withdrawal + 1 mg/L, NTT
# [9] = nicotine withdrawal + 1 mg/L, vs control, chronic nicotine and nicotine withdrawal groups
structure (smiles),measurement,setting,value
CC[C@H]1CC2C[C@H]3c4[nH]c5ccc(O)cc5c4CCN(C2)C13 [Noribogaine],"pupil diameter, each dose group compared with placebo","[1]; ANOVA after adjusting for baseline, 3-60 mg",no statistically significant differences
same,pupillary constriction,"[1]; healthy volunteers, single oral 3-60 mg",no evidence of pupillary constriction
same,"VAS pain scores, each dose group compared with placebo",[2],no statistically significant differences
same,"duration of hand immersion, each dose group compared with placebo",[2],no statistically significant differences
same,"withdrawal symptoms (COWS, OOWS, SOWS), first six hours following dosing",[3]; 120 mg,generally experienced fewer withdrawal symptoms than the other patients
same,"withdrawal symptoms (COWS, OOWS, SOWS), noribogaine versus placebo","[3]; 60, 120, 180 mg, first six hours following dosing",Patients administered placebo generally experienced more withdrawal symptoms than patients who were administered noribogaine
same,average time to resumption of opioids (OST),[3]; single 180 mg dose,still longer than untreated patients
same,nicotine infusion,"nicotine dependent rats; 12.5 mg/kg orally 2 hours prior to test, P<0.10 vs vehicle",A trend of depression of nicotine infusions
same,nicotine infusion,"nicotine dependent rats; 25 mg/kg orally 2 hours prior to test, P<0.001 vs vehicle",significantly depressed nicotine infusion
same,nicotine infusion,"nicotine dependent rats; 50 mg/kg orally 2 hours prior to test, P<0.001 vs vehicle",significantly depressed nicotine infusion
same,inactive lever press during nicotine self-administration,"nicotine dependent rats; all treatments, repeated measure ANOVA, P>0.05",no significant main effect of treatment
same,anxiolytic-like effects (manual NTT endpoints),[4]; 1 mg/L,statistically significant anxiolytic-like effects
same,circling behavior,"[4]; 1 mg/L, NTT, unaltered turn angle",did not evoke circling behavior
same,Anxiogenic-like and locomotor effects of repeated nicotine withdrawal,"[4]; 1 mg/L, acute",fully reversed
same,motor activity (distance traveled and velocity measures),"[4]; 1 mg/L, computer-generated NTT endpoints",unaltered motor activity
same,efficacy in pilot experiment,"[4]; 1 mg/L, dose did not promote locomotor effects",sub-maximal efficacy
same,latency to top,[4]; [7],statistically significant decrease
same,transitions to top,[4]; [7],statistically significant increase
same,transitions to upper half of tank per minute (habituation),[4]; [7],reached values equivalent to the control group at 5 minutes
same,Average velocity,[4]; [8],corrected by noribogaine treatment
same,Freezing bouts' frequency and duration,[4]; [8],reversed that effect in nicotine withdrawal fish and re-established levels to that of the control fish group
same,Total distance traveled (anxiety-like response of withdrawal group),[4]; [8],corrected by treatment with noribogaine
same,absolute change in direction (rotation angle),[4]; [8],no difference observed
same,"absolute change in direction of movement per distance moved (FIG. 12, panel G), reduced in withdrawal group",[4]; [8],corrected by treatment with noribogaine
same,freezing bouts frequency,[4]; [8],re-established the high bouts due to nicotine withdrawal toward control levels
same,high-mobility number of events,[4]; [8],increase in high-mobility number of events
same,increase of hi-mobility duration and frequency (factor),[4]; [8],~2
same,"mobility and immobility endpoints (durations, frequency)",[4]; [8],reestablished mobility (mobile and immobile) durations and frequency in nicotine treated fish to control values
same,"relative change in direction; absolute change in direction of movement per distance moved (FIG. 12, panels E and F)",[4]; [8],no change was seen
same,"mobility and immobility endpoints (durations, frequency)","[4]; nicotine withdrawal + 1 mg/L, NTT, listed as noribogaine",control-equivalent values for mobility and immobility endpoints
same,turning rotation rate,"[4]; nicotine withdrawal + 1 mg/L, over chronic nicotine and nicotine withdrawal groups",slight increase in turning rotation rate
same,average entry duration,[4]; [9],increased average entry duration
same,time spent in top,[4]; [9],Statistically significant increases in the duration of time spent in the top(s) portion of the tank
same,dose dependence of maximum serum concentration (Cmax),[5],increased in a dose-dependent manner
same,Headaches,[6]; 60 mg treatment group,frequent
same,Headaches,[6]; 120 mg and 180 mg dose groups,attenuated
same,adverse effects observed,"[6]; opioid-dependent participants, single 60, 120 or 180 mg",Few adverse effects
same,Dry Mouth,"[6]; treatment emergent AE, 60 mg, N = 6",0
